Laboratory results as given in paper PMC9611370 (Viruses, 2022).
Where two headings read alike, the source gives them in different places.

Legend:
[1] = test system: HIV-1NL4-3; experiment: In vitro antiviral assay (p24 ELISA) in PHA-stimulated human PBMCs; conditions: for IC50: read-out: NL4-3 Antiviral (PBMC) IC50; for IC90: read-out: NL4-3 Antiviral (PBMC) IC90
[2] = test system: PHA-stimulated human PBMCs; experiment: Cytotoxicity assay (MTT) in uninfected PBMCs; assay type: cell-based
[3] = Human immunodeficiency virus 1, NL43, PBMC, in Homo sapiens, 168 h
[4] = PHA-stimulated human PBMCs, 7 days, p24 ELISA

IC50 [1, 3] [nM] | IC90 [1, 3] [nM] | SMILES | cytotoxicity better than NBD-14189 ([2]; PBMC, compared with NBD-14189) | SI CC50/IC50 ([1]; PBMC CC50 / NL4-3 IC50) | IC50 [1, 4] [nM] | IC90 [1, 4] [nM] | CC50 ([2]; uninfected PBMCs, MTT, day 7, read-out: PBMC Toxicity CC50) [nM] | CC90 ([2]; uninfected PBMCs, MTT, day 7, read-out: PBMC Toxicity CC90) [nM]
280 | > 10000 | COc1cnc(-n2cnc(C)n2)c2[nH]cc(C(=O)C(=O)N3CCN(C(=O)c4ccccc4)CC3)c12 [BMS-626529] | about 3 fold |  |  |  |  | 
 |  | C#C[C@]1(CO)O[C@@H](n2cnc3c(N)nc(F)nc32)C[C@@H]1O [EFdA] |  | 13,000 | 1.7 | > 66 | 23000 | > 100000
